Test results reported in patent publication US8653087B2, “Pyrido [5, 4-D] pyrimidines as cell proliferation inhibitors” (Boehringer Ingelheim International GmbH, priority 2008, dated 2014).

Each molecule was assayed against B-Raf (V600E)-kinase (Homo sapiens (Human), UniProt P15056, V600E) (assay: Kinase test B-RAF (V600E)). Settings: B-RAF (V600E) kinase test, 250 μM ATP.
Assay type: biochemical
How it was run: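 B-Raf (V600E) (0.5 ng) preincubated with compound 24 h at RT (5% DMSO), then reacted 60 min at RT with 250 μM ATP and biotinylated MEK1 as substrate. Phospho-MEK (Ser217/221) captured on streptavidin and detected by europium time-resolved fluorescence; IC50 from dose-response curves.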

B-Raf (V600E)-kinase, sequence (P15056 whole entry V600E): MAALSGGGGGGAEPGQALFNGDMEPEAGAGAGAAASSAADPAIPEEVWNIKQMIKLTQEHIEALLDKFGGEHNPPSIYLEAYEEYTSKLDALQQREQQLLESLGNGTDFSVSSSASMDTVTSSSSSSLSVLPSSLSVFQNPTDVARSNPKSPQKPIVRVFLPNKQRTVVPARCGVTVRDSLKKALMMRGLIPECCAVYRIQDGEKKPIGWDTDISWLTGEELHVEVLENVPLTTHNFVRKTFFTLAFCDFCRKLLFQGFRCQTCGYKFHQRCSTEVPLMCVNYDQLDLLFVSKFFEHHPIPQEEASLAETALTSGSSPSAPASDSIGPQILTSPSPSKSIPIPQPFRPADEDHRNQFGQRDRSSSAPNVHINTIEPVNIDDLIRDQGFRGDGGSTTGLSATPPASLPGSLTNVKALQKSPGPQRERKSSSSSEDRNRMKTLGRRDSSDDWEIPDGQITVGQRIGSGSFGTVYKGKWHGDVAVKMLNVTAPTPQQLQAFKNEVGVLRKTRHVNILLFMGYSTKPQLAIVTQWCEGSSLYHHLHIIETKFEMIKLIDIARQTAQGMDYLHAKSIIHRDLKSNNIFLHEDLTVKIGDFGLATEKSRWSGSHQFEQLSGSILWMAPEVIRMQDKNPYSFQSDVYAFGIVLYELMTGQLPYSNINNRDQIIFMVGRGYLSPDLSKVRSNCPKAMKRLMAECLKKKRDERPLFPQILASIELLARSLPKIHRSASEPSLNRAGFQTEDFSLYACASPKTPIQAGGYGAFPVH

SMILES | IC50 [nM]
CN(CCN1CCCC1)c1ncc2ncnc(Nc3cc(C(=O)Nc4cc(C(C)(C)C)on4)ccc3Cl)c2n1 [III-71] | 3
CN1CCN(c2ncc3ncnc(Nc4cc(C(=O)Nc5cc(C(C)(C)C)on5)ccc4Cl)c3n2)CC1 [III-72] | 4
CC(C)(C)c1cc(NC(=O)c2ccc(Cl)c(Nc3ncnc4cnc(N5CCCCC5)nc34)c2)no1 [III-73] | 4
CC(C)(C)c1cc(NC(=O)c2ccc(Cl)c(Nc3ncnc4cnc(NCCCN5CCOCC5)nc34)c2)no1 [III-74] | 1
CC(C)(C)c1cc(NC(=O)c2ccc(Cl)c(Nc3ncnc4cnc(N5CCOCC5)nc34)c2)no1 [III-75] | 1
CC(C)(C)c1cc(NC(=O)c2ccc(Cl)c(Nc3ncnc4cnc(N5CCCC5)nc34)c2)no1 [III-76] | 11
CN(C)CCNc1ncc2ncnc(Nc3cc(C(=O)Nc4cc(C(C)(C)C)on4)ccc3Cl)c2n1 [III-77] | 2
CC(C)(C)c1cc(NC(=O)c2ccc(Cl)c(Nc3ncnc4cnc(NCCN5CCOCC5)nc34)c2)no1 [III-78] | 2
CN(C)CCN(C)c1ncc2ncnc(Nc3cc(C(=O)Nc4cc(C(C)(C)C)on4)ccc3Cl)c2n1 [III-79] | 1
COCCN(C)c1ncc2ncnc(Nc3cc(C(=O)Nc4cc(C(C)(C)C)on4)ccc3OC)c2n1 [III-80] | 6
COc1ccc(C(=O)Nc2cc(C(C)(C)C)on2)cc1Nc1ncnc2cnc(N3CCOCC3)nc12 [III-81] | 2
COc1ccc(C(=O)Nc2cc(C(C)(C)C)on2)cc1Nc1ncnc2cnc(N3CCCC3)nc12 [III-82] | 20
COc1ccc(C(=O)Nc2cc(C(C)(C)C)on2)cc1Nc1ncnc2cnc(N(C)C)nc12 [III-83] | 8
COCCN(C)c1ncc2ncnc(Nc3cc(C(=O)Nc4cc(C(C)(C)C)on4)ccc3F)c2n1 [III-84] | 2
CC(C)(C)c1cc(NC(=O)c2ccc(F)c(Nc3ncnc4cnc(N5CCCCCC5)nc34)c2)no1 [III-85] | 7
CN1CCCN(c2ncc3ncnc(Nc4cc(C(=O)Nc5cc(C(C)(C)C)on5)ccc4F)c3n2)CC1 [III-86] | < 1
COc1ccc(C(=O)Nc2cc(C(C)(C)C)on2)cc1Nc1ncnc2cnc(N3CCCCCC3)nc12 [III-87] | 3
CC(C)(C)c1cc(NC(=O)c2ccc(F)c(Nc3ncnc4cnc(N5CCCCC5)nc34)c2)no1 [III-88] | 5
CC(C)(C)c1cc(NC(=O)c2ccc(F)c(Nc3ncnc4cnc(N5CCOCC5)nc34)c2)no1 [III-89] | 4
CC(C)(C)c1cc(NC(=O)c2ccc(F)c(Nc3ncnc4cnc(N5CCCC5)nc34)c2)no1 [III-90] | 5
CN(C)CCNc1ncc2ncnc(Nc3cc(C(=O)Nc4cc(C(C)(C)C)on4)ccc3F)c2n1 [III-91] | 1
CC(C)(C)c1cc(NC(=O)c2ccc(F)c(Nc3ncnc4cnc(NCCN5CCOCC5)nc34)c2)no1 [III-92] | 1
CN(C)c1ncc2ncnc(Nc3cc(C(=O)Nc4cc(C(C)(C)C)on4)ccc3F)c2n1 [III-93] | 1
CNc1ncc2ncnc(Nc3cc(C(=O)Nc4cc(C(C)(C)C)on4)ccc3F)c2n1 [III-94] | 6
COc1ccc(C(=O)Nc2cc(C(C)(C)C)on2)cc1Nc1ncnc2cnc(N3CCN(C)CC3)nc12 [III-95] | 2
COc1ccc(C(=O)Nc2cc(C(C)(C)C)on2)cc1Nc1ncnc2cnc(N3CCCN(C)CC3)nc12 [III-96] | 2
COc1ccc(C(=O)Nc2cc(C(C)(C)C)on2)cc1Nc1ncnc2cnc(N(C)CCN3CCCC3)nc12 [III-97] | 4

SMILES | IC50 [nM]
COCCN(C)c1ncc2ncnc(Nc3cc(C(=O)Nc4cc(CN5CCCC5)cc(C(F)(F)F)c4)ccc3C)c2n1 [III-98] | 2
Cc1ccc(C(=O)Nc2cc(CN3CCCC3)cc(C(F)(F)F)c2)cc1Nc1ncnc2cnc(N3CCSCC3)nc12 [III-99] | 5
Cc1ccc(C(=O)Nc2cc(CN3CCCC3)cc(C(F)(F)F)c2)cc1Nc1ncnc2cnc(N3CCC3)nc12 [III-100] | 4
Cc1ccc(C(=O)Nc2cc(CN3CCCC3)cc(C(F)(F)F)c2)cc1Nc1ncnc2cnc(NCCF)nc12 [III-101] | 1
Cc1ccc(C(=O)Nc2cc(CN3CCCC3)cc(C(F)(F)F)c2)cc1Nc1ncnc2cnc(N3CCC(F)(F)CC3)nc12 [III-102] | 4
Cc1ccc(C(=O)Nc2cc(CN3CCCC3)cc(C(F)(F)F)c2)cc1Nc1ncnc2cnc(N3CCC(F)CC3)nc12 [III-103] | 2
Cc1ccc(C(=O)Nc2cc(CN3CCCC3)cc(C(F)(F)F)c2)cc1Nc1ncnc2cnc(NCC3CCOC3)nc12 (centres unmarked) [III-104] | 1
Cc1ccc(C(=O)Nc2cc(CN3CCCC3)cc(C(F)(F)F)c2)cc1Nc1ncnc2cnc(NCc3ccccc3)nc12 [III-105] | 3
Cc1ccc(C(=O)Nc2cc(CN3CCCC3)cc(C(F)(F)F)c2)cc1Nc1ncnc2cnc(N3CCCCC3)nc12 [III-106] | 2
Cc1ccc(C(=O)Nc2cc(CN3CCCC3)cc(C(F)(F)F)c2)cc1Nc1ncnc2cnc(N3CCOCC3)nc12 [III-108] | < 1
Cc1ccc(C(=O)Nc2cc(CN3CCCC3)cc(C(F)(F)F)c2)cc1Nc1ncnc2cnc(N3CCCC3)nc12 [III-109] | 2
COCCNc1ncc2ncnc(Nc3cc(C(=O)Nc4cc(CN5CCCC5)cc(C(F)(F)F)c4)ccc3C)c2n1 [III-110] | 1
Cc1ccc(C(=O)Nc2cc(CN3CCCC3)cc(C(F)(F)F)c2)cc1Nc1ncnc2cnc(NC3CC3)nc12 [III-111] | < 1
Cc1ccc(C(=O)Nc2cc(CN3CCCC3)cc(C(F)(F)F)c2)cc1Nc1ncnc2cnc(NCC(C)C)nc12 [III-112] | 2
Cc1ccc(C(=O)Nc2cc(CN3CCCC3)cc(C(F)(F)F)c2)cc1Nc1ncnc2cnc(NCc3ccncc3)nc12 [III-114] | 2
Cc1ccc(C(=O)Nc2cc(CN3CCCC3)cc(C(F)(F)F)c2)cc1Nc1ncnc2cnc(N(C)C)nc12 [III-115] | 2
CNc1ncc2ncnc(Nc3cc(C(=O)Nc4cc(CN5CCCC5)cc(C(F)(F)F)c4)ccc3C)c2n1 [III-116] | < 1
CCN(CC)c1ncc2ncnc(Nc3cc(C(=O)Nc4cc(CN5CCCC5)cc(C(F)(F)F)c4)ccc3C)c2n1 [III-117] | 2
Cc1ccc(C(=O)Nc2cc(CN3CCCC3)cc(C(F)(F)F)c2)cc1Nc1ncnc2cnc(NCCc3ccccc3)nc12 [III-118] | 2
Cc1ccc(C(=O)Nc2ccc(N(C)CCN(C)C)c(C(F)(F)F)c2)cc1Nc1ncnc2cnc(NCc3cccnc3)nc12 [III-129] | 2
Cc1ccc(C(=O)Nc2ccc(N(C)CCN(C)C)c(C(F)(F)F)c2)cc1Nc1ncnc2cnc(N3CCOCC3)nc12 [III-130] | 3
Cc1ccc(C(=O)Nc2ccc(N(C)CCN(C)C)c(C(F)(F)F)c2)cc1Nc1ncnc2cnc(NCc3ccccn3)nc12 [III-135] | 4
Cc1ccc(C(=O)Nc2ccc(N(C)CCN(C)C)c(C(F)(F)F)c2)cc1Nc1ncnc2cnc(NCc3ccncc3)nc12 [III-136] | 3
COCCN(C)c1ncc2ncnc(Nc3cc(C(=O)Nc4cc(OCCN(C)C)cc(C(F)(F)F)c4)ccc3C)c2n1 [III-141] | 2
Cc1ccc(C(=O)Nc2cc(OCCN(C)C)cc(C(F)(F)F)c2)cc1Nc1ncnc2cnc(N3CCSCC3)nc12 [III-142] | 3
Cc1ccc(C(=O)Nc2cc(OCCN(C)C)cc(C(F)(F)F)c2)cc1Nc1ncnc2cnc(N3CCC3)nc12 [III-143] | 2
